≈ marks a conversion by molar mass, not a printed value. Where “and” joins values, the source holds several entries; their conditions need not be identical. Identical values can stand only once. Entries after “also recorded” stand apart in the source; their conditions may differ. Like-named read-outs stand apart in the source and are kept apart here.
Assays:
M. tuberculosis H37Ra = conditions: cited from earlier work
[1] = test system: Fusarium avenaceum (Fr.) Sacc. IMI 319947; experiment: In vitro antifungal activity, mycelial growth (MIC); type: cell-based; conditions: F. avenaceum mycelial growth
[2] = test system: Bipolaris sorokiniana (Sacc.) Shoemaker H-299; experiment: as above; type: cell-based; conditions: B. sorokiniana mycelial growth; for MIC: Bipolaris sorokiniana
[3] = test system: Bipolaris sorokiniana conidium germination; experiment: Inhibition of Bipolaris sorokiniana conidium germination; type: cell-based; conditions: 48 h, read-out: Inhibition (%) Compared to Negative Control, conidium germination
[4] = test system: Staphylococcus aureus ATCC 29213; experiment: In vitro antibacterial evaluation, broth dilution micro-method (MIC); type: cell-based; conditions: read-out: MIC SA
MRSA 63718 [5] = experiment: as above; type: cell-based, Staphylococcus aureus; conditions: 24 h, read-out: MIC MRSA 63718
MRSA SA 630 [6] = experiment: as above; type: cell-based, Staphylococcus aureus; conditions: 24 h, read-out: MIC MRSA SA 630
MRSA SA 3202 [7] = experiment: as above; type: cell-based, Staphylococcus aureus; conditions: 24 h, read-out: MIC MRSA SA 3202
THP-1 cells = experiment: In vitro antiproliferative assay (WST-1); type: cell-based, human; conditions: WST-1, 24 h, highest concentration 30 μM, read-out: Tox IC50 (antiproliferative)
Experimental: The activity of this enzyme directly correlates with the number of metabolically active cells in the culture. […] Human monocytic leukemia THP-1 cells were used for in vitro antiproliferative assay. […] Cells were passaged at approximately one-week intervals. […] The maximum concentration of DMSO in the assays never exceeded 0.1%. Subsequently, the cells were incubated at 37 °C with 5% CO2 for 24 h. […] The median inhibition concentration values, IC50, were deduced through the production of a dose-response curve. All data were evaluated using GraphPad Prism 5.00 software (GraphPad Software, San Diego, CA, USA).

[8] = test system: photosynthetic electron transport (PET) in spinach chloroplasts; experiment: Inhibition of photosynthetic electron transport (PET) in spinach chloroplasts (Hill reaction, DCPIP); type: biochemical, Spinacia oleracea L.
Experimental: Chloroplasts were prepared from spinach (Spinacia oleracea L.) according to Masarovicova and Kralova. The inhibition of photosynthetic electron transport (PET) in spinach chloroplasts was determined spectrophotometrically (Genesys 6, Thermo Scientific), using an artificial electron acceptor 2,6-dichlorophenol-indophenol (DCIPP) according to Kralova et al., and the rate of photosynthetic electron transport was monitored as a photoreduction of DCPIP. The measurements were carried out in phosphate buffer (0.02 mol/L, pH 7.2) containing sucrose (0.4 mol/L), MgCl2 (0.005 mol/L), and NaCl (0.015 mol/L). The chlorophyll content was 30 mg/L in these experiments, and the samples were irradiated (~100 W/m^2 with 10 cm distance) with a halogen lamp (250 W) using a 4 cm water filter to prevent warming of the samples (suspension temperature 22 °C). The studied compounds were dissolved in DMSO due to their limited water solubility.

MRSA SA 3202 [9] = experiment: Synergy effect with clinically used drugs (fractional inhibitory concentration); type: cell-based, Staphylococcus aureus; conditions: for Separate MIC: MRSA SA 3202, each drug alone in the checkerboard plate; for Combined effect with vancomycin: additivity 0.5 < ΣFIC < 1
MRSA SA 630 [10] = experiment: as above; type: cell-based, Staphylococcus aureus; conditions: for Separate MIC: MRSA SA 630, each drug alone in the checkerboard plate; for Combined effect with vancomycin: additivity 0.5 < ΣFIC < 1
S. aureus ATCC 29213 = experiment: Dynamics of antibacterial effect (time-kill curves); type: cell-based, Staphylococcus aureus; conditions: 4× MIC, after 8 h; bactericidal = −3log decrease of CFU/mL
[11] = test system: S. aureus ATCC 29213 biofilm formation; experiment: Biofilm inhibition assay (crystal violet); type: cell-based, Staphylococcus aureus
Staphylococcus aureus = experiment: Pre-test subcultivation of aliquots on agar (minimal bactericidal concentration); type: cell-based
[12] = test system: Nicotiana tabacum var. Samsun; experiment: In vivo toxicity against plant cells (leaf injection); conditions: water solutions 1× MIC and 4× MIC injected into leaves, checked visually for 5 weeks
Experimental: Nicotiana tabacum var. Samsun was used for this test [88].
Nicotiana tabacum var. Samsun was used for this test. […] As the negative control, solutions of DMSO in the same concentration were used. The positive control was 5% DMSO, which should be toxic to the plant cells. The aqueous solutions were injected into the plant leaves by a syringe (needle 27G × ¾”) to fill area approx. 1 cm^2 [88]. The test was made in triplicates in three different plants. The plants were kept in a greenhouse on direct sunlight. The effect of the compounds was visually checked every day for 5 weeks.

[13] = Lipophilicity determination by RP-HPLC (capacity factor k / log k); conditions: C18, isocratic MeOH 72%/H2O 28%
MRSA 63718 [14] = experiment: Synergy effect with clinically used drugs (fractional inhibitory concentration); type: cell-based, Staphylococcus aureus; conditions: MRSA 63718, each drug alone in the checkerboard plate
[15] = Staphylococcus aureus, ATCC29213, 24 h
[16] = MRSA SA 3202, synergy ΣFIC ≤ 0.5

Row | SMILES | MIC ([1]; Fusarium avenaceum) | MIC [2] | MIC ([4]; S. aureus ATCC 29213, 24 h) [µM] | MIC [4, 15] | MIC (MRSA 63718 [5]) [µM] | MIC (MRSA 63718 [5]; Staphylococcus aureus, MRSA) | MIC (MRSA SA 630 [6]) [µM] | MIC (MRSA SA 630 [6]; Staphylococcus aureus, MRSA) | MIC (MRSA SA 3202 [7]) [µM] | MIC (MRSA SA 3202 [7]; Staphylococcus aureus, MRSA) | IC50 (THP-1 cells; Homo sapiens, THP-1, 24 h) [µM] | IC50 (THP-1 cells) [µM] | IC50 [8] [µM] | Separate MIC (MRSA SA 3202 [9]) | Combined effect with vancomycin (MRSA SA 3202 [9]; MRSA SA 3202) | Separate MIC (MRSA SA 630 [10]) | Combined effect with vancomycin (MRSA SA 630 [10]; MRSA SA 630) | bactericidal effect in time-kill curve assay (S. aureus ATCC 29213) | minimal bactericidal concentrations (Staphylococcus aureus) [× MIC] | log k [13] | other results
1 | O=C(Nc1cccc(C(F)(F)F)c1)c1ccc2cccc(O)c2n1 [8-hydroxy-N-(3-trifluoromethylphenyl)quinoline-2-carbox-amide] |  |  |  |  |  |  |  |  |  |  |  |  |  |  |  |  |  |  |  |  | decrease of the viability of M. tuberculosis H37Ra to (M. tuberculosis H37Ra): 18.8%
2 | CCCCNC(=O)n1c(NC(=O)OC)nc2ccccc21 [BNM, benomyl, reference compound] | 1.94 µM and 0.5 µg/mL | 17.2 µM and 5 µg/mL |  |  |  |  |  |  |  |  |  |  |  |  |  |  |  |  |  |  | inhibition at 5 µg/mL ([3]; 5 μg/mL): 100%; inhibition at 10 µg/mL ([3]; 10 μg/mL): 100%
3 | O=C(/C=C/c1ccccc1)Nc1cccc(C(F)(F)F)c1 [Compound 6, (2E)-3-Phenyl-N-[3-(trifluoromethyl)phenyl]prop-2-enamide] | 54.9 µM and 16 µg/mL | 54.9 µM and 16 µg/mL | 27.47 (≈ 8 µg/mL) | 27.5 µM and 8 µg/mL | 27.47 (≈ 8 µg/mL) | 27.5 µM and 8 µg/mL | 27.47 (≈ 8 µg/mL) | 27.5 µM and 8 µg/mL | 27.47 (≈ 8 µg/mL) | 27.5 µM and 8 µg/mL | 22 | 22.7 ± 1.73 | 189 | 16 μg/mL and 8/8 μg/mL and 8 μg/mL | additivity | 8 µg/mL | additivity | very close to the bactericidal level | ≤ 4 | 0.4859 | MIC [1]: 54.93 µM (≈ 16 µg/mL); MIC BS [2]: 49.98 to 66.32 µM; lowest concentration which inhibited ≥80% of biofilm formation ([11]; S. aureus ATCC 29213, 48 h): 8 µg/mL; in vivo toxicity against plant cells [12]: nontoxic effect; also recorded: no visible influence on the plant tissue
4 | O=C(/C=C/c1ccccc1)Nc1cc(C(F)(F)F)cc(C(F)(F)F)c1 [Compound 13, (2E)-N-[3,5-bis(Trifluoromethyl)phenyl]-3-phenylprop-2-enamide] | 713 µM and 256 µg/mL | 356 µM and 128 µg/mL | 22.27 (≈ 8 µg/mL) | 22.3 µM and 8 µg/mL | 22.27 (≈ 8 µg/mL) | 22.3 µM and 8 µg/mL | 22.27 (≈ 8 µg/mL) | 22.3 µM and 8 µg/mL | 22.27 (≈ 8 µg/mL) | 22.3 µM and 8 µg/mL | 22 | 22.6 ± 1.88 | 111 | 32 µg/mL | additivity | 8 µg/mL and 4 µg/mL | additivity | bactericidal | ≤ 4 | 0.981 and 0.9814 | Combined effect with ciprofloxacin (MRSA SA 3202 [9]; [16]): synergistic; Combined effect with tetracycline (MRSA SA 3202 [9]; [16]): synergistic; Combined effect with ciprofloxacin (MRSA SA 630 [10]; MRSA SA 630, synergy ΣFIC ≤ 0.5): synergistic
5 | CN(C)[C@@H]1C(O)=C(C(N)=O)C(=O)[C@@]2(O)C(O)=C3C(=O)c4c(O)cccc4[C@@](C)(O)[C@H]3C[C@@H]12 [TET, tetracycline, reference compound] |  |  |  |  |  |  |  |  |  |  |  |  |  | 64 µg/mL |  |  |  |  |  |  | Separate MIC (MRSA 63718 [14]): 128 µg/mL
6 | CN[C@H](CC(C)C)C(=O)N[C@H]1C(=O)N[C@@H](CC(N)=O)C(=O)N[C@H]2C(=O)N[C@H]3C(=O)N[C@H](C(=O)N[C@H](C(=O)O)c4cc(O)cc(O)c4-c4cc3ccc4O)[C@H](O)c3ccc(c(Cl)c3)Oc3cc2cc(c3O[C@@H]2O[C@H](CO)[C@@H](O)[C@H](O)[C@H]2O[C@H]2C[C@](C)(N)[C@H](O)[C@H](C)O2)Oc2ccc(cc2Cl)[C@H]1O [VAN, vancomycin, reference compound] |  |  |  |  |  |  |  |  |  |  |  |  |  | 1 µg/mL |  | 1 µg/mL |  |  |  |  | Separate MIC (MRSA 63718 [14]): 2 µg/mL; effect on biofilm formation ([11]; sub-MIC concentrations): induction of biofilm formation

Source: PMC6121455, “Synthesis and Spectrum of Biological Activities of Novel N-arylcinnamamides” (International Journal of Molecular Sciences, 2018)
